Data on one molecule can be found in patent US5574059A, “Treating disorders mediated by vascular smooth muscle cell proliferation” (priority 1995, dated 1996).

One assay concerns rat carotid artery. Nature of the assay: balloon angioplasty of rat left common carotid artery. The assay is classed as in vivo. Particulars: 10 mg/kg/24hr for 7 days, s.c. minipump. The method, then: To determine the actions of idazoxan in inhibiting the proliferation of vascular smooth muscle cells in vivo, we tested the effect of balloon angioplasty in rat carotid artery. Left common carotid artery balloon angioplasty was performed as described by Ohlstein et al, Proc. Natl. Acad. Sci. 90, 6189-6193 (1993). Rats were implanted, subcutaneously, with Alzet minipumps (1 μl/hr delivery rate) containing idazoxan to deliver a dose of 10 mg/kg/24hr for 7 days. Control rats were implanted with minipumps containing sterile saline. Ballon angioplasty of left common carotid artery was performed on fourth day of idazoxan administration and animals were sacrificed 10 days after the surgery. Left and right common carotid arteries were removed, cross-sections (10 μm) were cut in a cryostat and stained with eosin and hematoxylin. Blood vessel layers were quantitated in an imaging system and the ratio of internal and external diameters were calculated.

The subject of assay [1] is rat aortic smooth muscle cells. Nature of the assay: serum-stimulated proliferation, 3H-thymidine incorporation into DNA. The class given is cell-based. To be noted: 10% fetal calf serum stimulated. Here is the method:
(§1) Inhibition of serum-stimulated proliferation of rat aortic smooth muscle cells is determined as follows: The antiproliferative effect of potential drug is determined by measuring the incorporation of ^3 H-thymidine into cellular DNA. Exposure of quiescent vascular smooth muscle cell to serum, which contains many growth factors, results in a large increase in cellular proliferation as measured by ^3 H-thymidine incorported into DNA. The inhibitory effect of potential drug on serum-stimulated proliferation is tested by adding a drug before the addition of serum and determining if the serum-stimulated proliferation is reduced. […] In that event, antagonizing of the antiproliferative effect of idazoxan is determined by adding antagonist before the addition of idazoxan to serum-stimulated vascular smooth muscle cells.
In this experiment, the proliferation of vascular smooth muscle cells was determined by measuring DNA replication. The incorporation of ^3 H-thymidine into DNA was used to measure the replication of DNA as described in Erlinge, D., et al, Am. J. Physiol. 265, H1089-H1097 (1993) which is incorporated herein by reference.
(§2) Rat aortic smooth muscle cells prepared as described in In Vitro Example 1 were plated into 24-well plates at a density of about 30,000 cells/well in 10% fetal calf serum (FCS). After 48 hours, the cells were starved in 0.5% FCS for another 48 hours to decrease proliferation and induce quiescence. The medium was replaced by serum-free medium 24 hours prior to addition of drug (drugs are described below) and 10% fetal calf serum or only 10% fetal calf serum in the case of the control. The cells were then incubated for 24 hours and ^3 H-thymidine (1 μCi/well) was added at hour 20. At the end of the 24 hour period, the medium was aspirated and the cells were washed three times with phosphate-buffered saline and twice with ice-cold trichloroacetic acid. Fixed cells were then solubilized in 0.2M NaOH and sonicated. A 100 μl aliquot was used for scintillation counting.

In assay [2] the test system is rat aortic smooth muscle cells. Nature of the assay: antagonism of the antiproliferative effect in serum-stimulated smooth muscle cells. The class given is cell-based. To be noted: Rattus norvegicus; in presence of tolazoline 100 μM; read-out: IC50 of idazoxan in presence of tolazoline. Here is the method: as §1
as §2, with “After” for “Rat aortic smooth muscle cells prepared as described in In Vitro Example 1 were plated into 24-well plates at a density of about 30,000 cells/well in 10% fetal calf serum (FCS). After”
To test this, the effect of tolazoline (100 μM) on the concentration/response curve was determined.

For orientation: IC50 means the point on the concentration scale where inhibition reaches its midpoint. Consider `c1ccc2c(c1)OCC(C1=NCCN1)O2` (stereo not drawn) [Idazoxan, 2-[2-(1,4-benzodioxanyl)]-2-imidazoline], for which, in the assay with rat carotid artery, the “internal/external diameter ratio, non-injured right common carotid artery vs control” value is recorded as “no significant difference”. The “internal/external diameter ratio of lesion side as percent of control side” value with rat carotid artery (10 days after surgery, saline control 21.9 ±3.3) was found to be 6.5 ±3.4%. Besides, in the assay on rat carotid artery (injured left common carotid artery), the “lesion side as percent of control side vs saline, in words” value is “significant decrease”. Further, in assay [1], the “inhibition of vascular smooth muscle cell proliferation, in words” value is given as “potently inhibited”. For the same molecule, the half-inhibitory concentration (IC50) in assay [1] (Rattus norvegicus, 24 h, read-out: 3H-thymidine incorporated (IC50)) amounted to 4.5 ± 1.4 µM; in assay [2], 55 µM.
